Reference: patent US20250122222A1, “HETEROCYCLIC COMPOUNDS AND METHODS OF USE” (AMGEN INC., priority 2021, published 2025)
pIC50: −log10 of the molar value.

What was measured:
[1] = tested on: Phosphorylation of ERK1/2 in AsPC-1 cells; experiment: Phospho-ERK1/2 MSD assay; type: cell-based; conditions: Homo sapiens, ASPC1, read-out: 2 h p-ERK (AsPC-1 cells), IC50 (μM), 2 hours compound treatment
Protocol: Sixteen hours prior to compound treatment, AsPC-1 cells were seeded in 96-well cell culture plates at a density of 25,000 cells/well and incubated at 37° C., 5% CO2. A compound dose-response titration was diluted in growth media, added to appropriate wells of a cell culture plate, and then incubated at 37° C., 5% CO2 for 2 hours.

[2] = target: His-tagged KRAS G12D protein (Homo sapiens, UniProt P01116, G12D); experiment: KRAS G12D TR-FRET assay (binding); conditions: biotinylated KRPep-2d substrate, GDP in assay buffer
Sequence of His-tagged KRAS G12D protein (P01116 1-188 isoform P01116-2 G12D): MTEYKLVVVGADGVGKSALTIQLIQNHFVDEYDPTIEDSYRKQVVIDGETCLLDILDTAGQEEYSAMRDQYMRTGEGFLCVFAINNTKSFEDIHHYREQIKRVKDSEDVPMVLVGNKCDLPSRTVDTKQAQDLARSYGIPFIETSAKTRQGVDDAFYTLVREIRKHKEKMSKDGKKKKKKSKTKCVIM
Protocol: The plate was incubated for 30 minutes at room temperature. Biotinylated KRPep-2d substrate (Amgen) was diluted to 20 nM in Assay Buffer and 2 L was added to all wells and incubated for 1 hour at room temperature. Detection Reagent (0.4 nM LANCE Eu-W1024 Anti-6xHis (Perkin Elmer AD0401), 5 nM streptavidin-d^2 (Cisbio 610SADLA)) was prepared in Assay Buffer, then 4 μL was added to the plate and incubated for 1 hour at room temperature.

Row | Structure (SMILES) | IC50 [1] [µM] | pIC50 [2]
1 | CCc1c(F)ccc2cc(O)cc(-c3ncc4c(N5CCCS(=O)(=O)CC5)nc(OC[C@@]56CCCN5C[C@H](F)C6)nc4c3F)c12 [Example 37, 4-(7-(8-Ethyl-7-fluoro-3-hydroxynaphthalen-1-yl)-8-fluoro-2-(((2R,7aS)-2-fluorotetrahydro-1H-pyrrolizin-7a(5H)-yl)methoxy)pyrido[4,3-d]pyrimidin-4-yl)-1,4-thiazepane 1,1-dioxide] | 2.66 | 7.96
2 | CCc1c(F)ccc2cc(O)cc(-c3ncc4c(N5CC6CC5CS6(=O)=O)nc(OC[C@@]56CCCN5C[C@H](F)C6)nc4c3F)c12 (stereo partly drawn) [Example 59, 5-(7-(8-Ethyl-7-fluoro-3-hydroxy-naphthalen-1-yl)-8-fluoro-2-(((2R,7aS)-2-fluorotetrahydro-1H-pyrrolizin-7a(5H)-yl)meth-oxy)pyrido[4,3-d]pyrimidin-4-yl)-2-thia-5-azabicyclo [2.2.1]heptane 2,2-dioxide] | 3.63 | 7.85
3 | CCc1c(F)ccc2cc(O)cc(-c3ncc4c(N5CCO[C@H](C)C5)nc(OC[C@@]56CCCN5C[C@H](F)C6)nc4c3F)c12 [Example 52, 5-Ethyl-6-fluoro-4-(8-fluoro-2-(((2R,7aS)-2-fluorotetrahydro-1H-pyrrolizin-7a(5H)-yl)meth-oxy)-4-((R)-2-methylmorpho-lino)-pyrido[4,3-d]pyrimidin-7-yl)-naphthalen-2-ol] | 1.28 | 7.48
4 | CCc1c(F)ccc2cc(O)cc(-c3ncc4c(N5CC6CC(C#N)C(C5)O6)nc(OC[C@@]56CCCN5C[C@H](F)C6)nc4c3F)c12 (single isomer, unassigned) [Example 72] | 0.308 | 8.22
5 | CCc1c(F)ccc2cc(O)cc(-c3ncc4c(N5C[C@@H]6CC[C@@H]5CO6)nc(OC[C@@]56CCCN5C[C@H](F)C6)nc4c3F)c12 [Example 28, 4-(4-((1S,4R)-2-Oxa-5-azabicyclo[2.2.2]octan-5-yl)-8-fluoro-2-(((2R,7aS)-2-fluorotetrahydro-1H-pyrrolizin-7a(5H)-yl)methoxy)pyrido [4,3-d]pyrimidin-7-yl)-5-ethyl-6-fluoronaphthalen-2-ol] | 1.77 | 7.10
6 | CCc1cccc2cc(O)cc(-c3ncc4c(N5CCCOCC5)nc(OCC5(CN6CCOCC6)CC5)nc4c3F)c12 [Example 20, 5-Ethyl-4-(8-fluoro-2-((1-(morpholinomethyl)cyclopropyl)methoxy)-4-(1,4-oxazepan-4-yl)pyrido[4,3-d]pyrimidin-7-yl)naphthalen-2-ol] | 0.336 | 8.30
7 | CCc1c(F)ccc2cc(O)cc(-c3ncc4c(N5CCCS(=N)(=O)CC5)nc(OC[C@@]56CCCN5C[C@H](F)C6)nc4c3F)c12 (stereo partly drawn) [Example 38, 4-(7-(8-Ethyl-7-fluoro-3-hydroxynaphthalen-1-yl)-8-fluoro-2-(((2R,7aS)-2-fluorotetrahydro-1H-pyrrolizin-7a(5H)-yl)methoxy)pyrido[4,3-d]pyrimidin-4-yl)-1-imino-1 λ^6,4-thiazepane 1-oxide] | > 10 | 7.68
8 | CCc1c(F)ccc2cc(O)cc(-c3ncc4c(N5CCOC(CO)CC5)nc(OC[C@@]56CCCN5C[C@H](F)C6)nc4c3F)c12 (stereo partly drawn) [Example 57, 5-Ethyl-6-fluoro-4-(8-fluoro-2-(((2R, 7aS)-2-fluorotetra-hydro-1H-pyrrolizin-7a(5H)-yl)methoxy)-4-(7-(hydroxymeth-yl)-1,4-oxazepan-4-yl)pyrido[4,3-d]pyrimidin-7-yl)-naphthalen-2-ol] | 5.95 | 7.89
9 | CN1C[C@H](F)C[C@H]1COc1nc(N2CCCOCC2)c2cnc(-c3cc(O)cc4ccccc34)c(F)c2n1 [Example 16, 4-(8-Fluoro-2-(((2S,4R)-4-fluoro-1-methylpyrrolidin-2-yl)methoxy)-4-(1,4-oxazepan-4-yl)pyrido[4,3-d]pyrimidin-7-yl)naphthalen-2-ol] | 4.83 | 7.14
10 | CCc1c(F)ccc2cc(O)cc(-c3ncc4c(N5CCO[C@@H](COC)C5)nc(OC[C@@]56CCCN5C[C@H](F)C6)nc4c3F)c12 [Example 53, 5-Ethyl-6-fluoro-4-(8-fluoro-2-(((2R, 7aS)-2-fluorotetra-hydro-1H-pyrrol-izin-7a(5H)-yl)-methoxy)-4-((R)-2-(methoxymeth-yl)morpholino)pyr-ido[4,3-d]pyrimi-din-7-yl)naph-thalen-2-ol] | 1.24 | 7.41
11 | CCc1c(F)ccc2cc(O)cc(-c3ncc4c(N5CCC[S+]([O-])CC5)nc(OC[C@@]56CCCN5C[C@H](F)C6)nc4c3F)c12 (stereo partly drawn) [Example 36, 4-(7-(8-Ethyl-7-fluoro-3-hydroxynaphthalen-1-yl)-8-fluoro-2-(((2R,7aS)-2-fluorotetrahydro-1H-pyrrolizin-7a(5H)-yl)methoxy)pyrido[4,3-d]pyrimidin-4-yl)-1,4-thiazepane 1-oxide] | 0.651 | 9.00
12 | C#CC1(O)COCCN(c2nc(OC[C@@]34CCCN3C[C@H](F)C4)nc3c(F)c(-c4cc(O)cc5ccc(F)c(CC)c45)ncc23)C1 (stereo partly drawn) [Example 70, 4-(7-(8-ethyl-7-fluoro-3-hydroxynaphthalen-1-yl)-8-fluoro-2-(((2R,7aS)-2-fluorotetrahydro-1H-pyrrolizin-7a(5H)-yl)methoxy)pyrido[4,3-d]pyrimidin-4-yl)-6-ethynyl-1,4-oxazepan-6-ol] | 0.643 | 9.00
13 | CCc1c(F)ccc2cc(O)cc(-c3ncc4c(N5CCOCC(C#N)C5)nc(OC[C@@]56CCCN5C[C@H](F)C6)nc4c3F)c12 (stereo partly drawn) [Example 61, 4-(7-(8-Ethyl-7-fluoro-3-hydroxy-naphthalen-1-yl)-8-fluoro-2-(((2R,7aS)-2-fluorotetrahydro-1H-pyrrolizin-7a(5H)-yl)meth-oxy)-pyrido[4,3-d]pyrimidin-4-yl)-1,4-oxazepane-6-carbonitrile] | 0.193 | 8.52
14 | CCc1c(F)ccc2cc(O)cc(-c3ncc4c(N5CC6COC(C5)C6O)nc(OC[C@@]56CCCN5C[C@H](F)C6)nc4c3F)c12 (relative stereo) [Example 11, 3-(7-(8-Ethyl-7-fluoro-3-hydroxynaphthalen-1-yl)-8-fluoro-2-(((2R,7aS)-2-fluorotetrahydro-1H-pyrrolizin-7a(5H)-yl)methoxy)pyrido [4,3-d]pyrimidin-4-yl)-6-oxa-3-azabicyclo[3.2.1] octan-8-ol] | > 10 | 7.41
15 | CCc1c(F)ccc2cc(O)cc(-c3ncc4c(N5CCOC(C(N)=O)C5)nc(OC[C@@]56CCCN5C[C@H](F)C6)nc4c3F)c12 (stereo partly drawn) [Example 76, 4-(7-(8-Ethyl-7-fluoro-3-hydroxynaphthalen-1-yl)-8-fluoro-2-(((2R,7aS)-2-fluorotetrahydro-1H-pyrrolizin-7a(5H)-yl)methoxy)pyrido[4,3-d]pyrimidin-4-yl)morpholine-2-carboxamide] | 3.33 | 8.22
16 | Oc1cc(-c2ncc3c(N4CCCOCC4)nc(OCC45CCCN4CCC5)nc3c2F)c2ccccc2c1 [Example 13, 4-(8-Fluoro-4-(1,4-oxazepan-4-yl)-2-((tetrahydro-1H-pyrrolizin-7a(5H)-yl)methoxy)pyrido [4,3-d]pyrimidin-7-yl)naphthalen-2-ol] | 4.18 | 7.96
17 | CCc1c(F)ccc2cc(O)cc(-c3ncc4c(N5CCOCC(S(N)(=O)=O)C5)nc(OC[C@@]56CCCN5C[C@H](F)C6)nc4c3F)c12 (stereo partly drawn) [Example 63, 4-(7-(8-Ethyl-7-fluoro-3-hydroxy-naphthalen-1-yl)-8-fluoro-2-(((2R,7aS)-2-fluorotetrahydro-1H-pyrrolizin-7a(5H)-yl)meth-oxy)pyrido[4,3-d]pyrimidin-4-yl)-1,4-oxazepane-6-sulfonamide] | 1.38 | 8.30
18 | CCc1cccc2cc(O)cc(-c3ncc4c(N5C[C@H]6COC[C@@H](C5)O6)nc(OC[C@@]56CCCN5C[C@H](F)C6)nc4c3F)c12 [Example 23, 4-(4-((1R,5S)-3,9-Dioxa-7-azabicyclo[3.3.1]nonan-7-yl)-8-fluoro-2-(((2R,7aS)-2-fluorotetrahydro-1H-pyrrolizin-7a(5H)-yl)methoxy)pyrido [4,3-d]pyrimidin-7-yl)-5-ethylnaphthalen-2-ol] | 1.15 | 7.54
19 | CCc1c(F)ccc2cc(O)cc(-c3ncc4c(N5CCOCC(C(=O)NC)C5)nc(OC[C@@]56CCCN5C[C@H](F)C6)nc4c3F)c12 (single isomer, unassigned) [Example 45] | 0.427 | 8.70
20 | CCc1c(F)ccc2cc(O)cc(-c3ncc4c(N5CCSCC5)nc(OC[C@@]56CCCN5C[C@H](F)C6)nc4c3F)c12 [Example 4, 5-Ethyl-6-fluoro-4-(8-fluoro-2-(((2R,7aS)-2-fluorotetrahydro-1H-pyrrolizin-7a(5H)-yl)methoxy)-4-thiomorpholino-pyrido[4,3-d]pyrimidin-7-yl)naphthalen-2-ol] | 0.486 | 8.40
21 | CCc1c(F)ccc2cc(O)cc(-c3ncc4c(N5CCOC[C@@H](CO)C5)nc(OC[C@@]56CCCN5C[C@H](F)C6)nc4c3F)c12 [Example 50, 5-Ethyl-6-fluoro-4-(8-fluoro-2-(((2R, 7aS)-2-fluorotetra-hydro-1H-pyrrol-izin-7a(5H)-yl)-methoxy)-4-((R)-6-(hydroxymeth-yl)-1,4-oxazepan-4-yl)pyrido[4,3-d]pyrimidin-7-yl)-naphthalen-2-ol] | 0.07 | 
22 | Oc1cc(-c2ncc3c(N4CCCOCC4)nc(OC[C@@]45CCCN4C[C@H](F)C5)nc3c2F)c2ccccc2c1 [Example 14, 4-(8-Fluoro-2-(((2R,7aS)-2-fluorotetrahydro-1H-pyrrolizin-7a(5H)-yl)methoxy)-4-(1,4-oxazepan-4-yl)pyrido[4,3-d]pyrimidin-7-yl)naphthalen-2-ol] | 0.794 | 
